Measurements reported in US9402398B2, “Herbicidal compounds” (SYNGENTA PARTICIPATIONS AG, priority 2012, dated 2016).

Key:
Format in all cases: in vivo
[1] = system: Amaranthus retoflexus (AMARE); assay: Herbicidal glasshouse test, post-emergence; conditions: post-emergence (sprayed after 8 days cultivation), 1000 g/h, evaluated after 13 days
Procedure: (§1) Seeds of a variety of test species are sown in standard soil in pots (Alopecurus myosuroides (ALOMY), Setaria faberi (SETFA), Echinochloa crus-galli (ECHCG), Solanum nigrum (SOLNI), Amaranthus retoflexus (AMARE), Ipomoea hederacea (IPOHE)). After cultivation for one day (pre-emergence) or after 8 days cultivation (post-emergence) under controlled conditions in a glasshouse (at 24/16° C., day/night; 14 hours light; 65% humidity), the plants are sprayed with an aqueous spray solution derived from the formulation of the technical active ingredient in acetone/water (50:50) solution containing 0.5% Tween 20 (polyoxyethelyene sorbitan monolaurate, CAS RN 9005-64-5). Compounds are applied at 1000 g/h. The test plants are then grown in a glasshouse under controlled conditions in a glasshouse (at 24/16° C., day/night; 14 hours light; 65% humidity) and watered twice daily. After 13 days for pre and post-emergence, the test is evaluated for the percentage damage caused to the plant. The biological activities are shown in the following table on a five point scale (5=80-100%; 4=60-79%; 3=40-59%; 2=20-39%; 1=0-19%).

[2] = system: Alopecurus myosuroides (ALOMY); assay: Herbicidal glasshouse test, post-emergence; conditions: post-emergence (sprayed after 8 days cultivation), 1000 g/h, evaluated after 13 days
Procedure: as §1

[3] = system: Ipomoea hederacea (IPOHE); assay: Herbicidal glasshouse test, post-emergence; conditions: post-emergence (sprayed after 8 days cultivation), 1000 g/h, evaluated after 13 days
Procedure: as §1

[4] = system: Setaria faberi (SETFA); assay: Herbicidal glasshouse test, post-emergence; conditions: post-emergence (sprayed after 8 days cultivation), 1000 g/h, evaluated after 13 days
Procedure: as §1

[5] = system: Solanum nigrum (SOLNI); assay: Herbicidal glasshouse test, post-emergence; conditions: post-emergence (sprayed after 8 days cultivation), 1000 g/h, evaluated after 13 days
Procedure: as §1

[6] = system: Echinochloa crus-galli (ECHCG); assay: Herbicidal glasshouse test, post-emergence; conditions: post-emergence (sprayed after 8 days cultivation), 1000 g/h, evaluated after 13 days
Procedure: as §1

[7] = system: Amaranthus retoflexus (AMARE); assay: Herbicidal glasshouse test, pre-emergence; conditions: pre-emergence (sprayed after cultivation for one day), 1000 g/h, evaluated after 13 days
Procedure: as §1

[8] = system: Alopecurus myosuroides (ALOMY); assay: Herbicidal glasshouse test, pre-emergence; conditions: pre-emergence (sprayed after cultivation for one day), 1000 g/h, evaluated after 13 days
Procedure: as §1

[9] = system: Ipomoea hederacea (IPOHE); assay: Herbicidal glasshouse test, pre-emergence; conditions: pre-emergence (sprayed after cultivation for one day), 1000 g/h, evaluated after 13 days
Procedure: as §1

[10] = system: Setaria faberi (SETFA); assay: Herbicidal glasshouse test, pre-emergence; conditions: pre-emergence (sprayed after cultivation for one day), 1000 g/h, evaluated after 13 days
Procedure: as §1

[11] = system: Solanum nigrum (SOLNI); assay: Herbicidal glasshouse test, pre-emergence; conditions: pre-emergence (sprayed after cultivation for one day), 1000 g/h, evaluated after 13 days
Procedure: as §1

[12] = system: Echinochloa crus-galli (ECHCG); assay: Herbicidal glasshouse test, pre-emergence; conditions: pre-emergence (sprayed after cultivation for one day), 1000 g/h, evaluated after 13 days
Procedure: as §1

Cc1cc(C(=O)Nc2nnnn2C)c(=O)n(-c2ccc(F)cc2Br)n1 [Compound 1.020]
5 (5=80-100%): percentage damage caused to the plant, five point scale, POST Application AMARE [1] | percentage damage caused to the plant, five point scale, POST Application ALOMY [2] | percentage damage caused to the plant, five point scale, POST Application IPOHE [3] | percentage damage caused to the plant, five point scale, POST Application SETFA [4] | percentage damage caused to the plant, five point scale, POST Application SOLNI [5] | percentage damage caused to the plant, five point scale, POST Application ECHCG [6] | percentage damage caused to the plant, five point scale, PRE Application AMARE [7] | percentage damage caused to the plant, five point scale, PRE Application ALOMY [8] | percentage damage caused to the plant, five point scale, PRE Application IPOHE [9] | percentage damage caused to the plant, five point scale, PRE Application SETFA [10] | percentage damage caused to the plant, five point scale, PRE Application SOLNI [11] | percentage damage caused to the plant, five point scale, PRE Application ECHCG [12]
